In one data set the test system is gamma-H2AX. The data set is described as follows: Gamma-H2AX measurement of DNA damage by flow cytometry. The settings on record: 100 μM leflunomide 48 h or A771726. The format is cell-based. How it is done:
FIG. 4A is a graph showing positively-stained cells labeled with a gamma-H2AX antibody; cells were analyzed by flow cytometry (Student's t-test, *p<0.05, n=3). […] The mean fluorescence intensity (MFI) was determined using flow cytometry (Student's t-test, *p<0.01, n=3). FIG. 4C is a series of representative photographs showing MEFs treated with 150 μM A771726 for 24 h and labeled with EdU and gamma-H2AX. Left: representative confocal microscopy images. Right: quantified EdU and gamma-H2AX colocalized foci (Student's t-test, *p<0.05, n=3). […] Left: representative confocal microscopy images. Right: quantification of the number of foci per cell (Student's t-test, p>0.05, n=6). FIG. 4E is a graph showing the percentage of cells treated with 150 μM A771726 for times indicated and labeled with antibodies to RPA and gamma-H2AX positively staining for RPA alone or both RPA and gamma-H2AX; cells were analyzed by flow cytometry (Student's t-test, *p<0.05, n=4). […] FIGS. 4G and 4H are graphs quantifying the number of chromosomal breaks and multiradial formations per haploid genome (Student's t-test, *p-values on figure, cells scored/replicate>100). […]
FIG. 10D is a bar graph showing a quantitative depiction of the percent cell area with EdU-staining from images in FIG. 4D, used to normalize foci to cell size (Student's t-test, p>0.05, not significant, n=6). […]
For orientation: A flow cytometer gives signals particle by particle.

In another data set the target is T1, CYP2D6 (Homo sapiens, UniProt P10635).
T1 construct: metoprolol (a CYP2D6 substrate); host or cells: human subjects, in vivo
The settings on record: in vivo; cited from earlier work.

For data set [1] the following is noted: cited from earlier work.
Another data set has as its target T2, albumin (Homo sapiens, UniProt P02768).
T2 construct: host or cells: human subjects (circulating albumin)
As to conditions: cited from earlier work.

The test system of the next data set is CYP1A2. The settings on record: repeated doses of teriflunomide; cited from earlier work.
Another data set addresses T3, CYP2C8 (Homo sapiens, UniProt P10632).
T3 construct: host or cells: human subjects, in vivo
The settings on record: repeated doses of teriflunomide, single dose of 0.25 mg repaglinide; cited from earlier work.

In the next data set the target is T4, CYP2C9 (Homo sapiens, UniProt P11712).
T4 construct: S-warfarin (a CYP2C9 substrate); host or cells: human subjects, in vivo
As to conditions: in vivo; cited from earlier work.

The conditions of data set [2]: healthy subjects; cited from earlier work.
For data set [3] the following is noted: repeated doses of teriflunomide; cited from earlier work.
The target of a further data set is T5, CYP2B6 (Homo sapiens, UniProt P20813).
T5 construct: host or cells: human subjects, in vivo
The settings on record: in vivo; cited from earlier work.

The conditions of data set [4]: in vivo; cited from earlier work.
A further data set has as its system Pten^−/− and WT MEFs. The data set is described as follows: Drug response assay (GI50 dose titration) in Pten WT and KO MEFs. Format: cell-based, mouse. The settings on record: GI50 dose titration (FIG. 2A). The procedure: FIG. 2F is a graph comparing various human breast cancer cell line growth rates. FIG. 2G is a series of immunoblots of pAKT in nuclear fractions of Pten^−/− and Pik3ca mutant MEFs. […] Data shown as mean+SD.
1500 cells per well (mouse cells) or 3000 cells per well (human cells) were plated in 96-well plates (Corning 720089). Growth rates were determined using the phase-confluency readings on an IncuCyte ZOOM (Essen Biosciences) on live cells over time.
Cells were plated in 96-well plates at a density of 1500 or 3000 cells per well. […] Sensitivity was determined by a dose-response titration for each cell line, with an equivalent amount of DMSO in each well. For cell death assays, DRAQ7™ (Cell Signaling 7406S) was added to the media at a 1:200 dilution and red fluorescence was measured in addition to phase in live-cell imaging to measure accumulation of dead cells. An IncuCyte ZOOM was used.

The target of data set [5] is T6, organic anion transporter 3 (OAT3) (Homo sapiens, UniProt Q8TCC7).
T6 construct: host or cells: human subjects, in vivo
As to conditions: repeated doses of teriflunomide; cited from earlier work.

Where two headings read alike, the source gives them in different places.

T2 sequence (P02768 25-609): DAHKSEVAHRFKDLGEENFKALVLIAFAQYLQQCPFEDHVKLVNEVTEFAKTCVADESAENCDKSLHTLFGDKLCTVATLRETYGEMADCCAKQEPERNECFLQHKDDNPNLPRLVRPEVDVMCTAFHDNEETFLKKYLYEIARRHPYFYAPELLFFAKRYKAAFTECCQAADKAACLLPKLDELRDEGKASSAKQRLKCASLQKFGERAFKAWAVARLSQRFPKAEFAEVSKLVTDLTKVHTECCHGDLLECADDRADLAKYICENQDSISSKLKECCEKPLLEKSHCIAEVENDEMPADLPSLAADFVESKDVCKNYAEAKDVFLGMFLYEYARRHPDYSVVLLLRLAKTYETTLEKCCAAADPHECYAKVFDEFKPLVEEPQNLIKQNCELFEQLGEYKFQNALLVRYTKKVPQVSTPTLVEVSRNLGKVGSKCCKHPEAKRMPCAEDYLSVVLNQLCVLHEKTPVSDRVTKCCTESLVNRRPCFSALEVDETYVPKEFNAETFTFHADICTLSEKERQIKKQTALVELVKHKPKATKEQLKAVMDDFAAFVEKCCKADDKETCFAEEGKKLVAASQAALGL
T3 sequence (P10632 whole entry): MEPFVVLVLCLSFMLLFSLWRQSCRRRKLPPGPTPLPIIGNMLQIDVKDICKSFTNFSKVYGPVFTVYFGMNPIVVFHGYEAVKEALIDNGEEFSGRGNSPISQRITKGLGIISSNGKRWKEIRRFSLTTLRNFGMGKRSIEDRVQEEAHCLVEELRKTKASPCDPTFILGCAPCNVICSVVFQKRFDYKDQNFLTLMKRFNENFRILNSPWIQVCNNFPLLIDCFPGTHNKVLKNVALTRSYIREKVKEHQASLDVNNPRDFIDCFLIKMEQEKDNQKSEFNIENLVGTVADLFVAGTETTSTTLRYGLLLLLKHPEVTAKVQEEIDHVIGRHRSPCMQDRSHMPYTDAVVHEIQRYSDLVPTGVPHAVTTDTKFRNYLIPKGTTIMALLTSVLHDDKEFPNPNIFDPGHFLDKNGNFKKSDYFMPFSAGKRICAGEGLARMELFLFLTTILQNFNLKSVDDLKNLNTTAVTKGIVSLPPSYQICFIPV
T6 sequence (Q8TCC7 whole entry): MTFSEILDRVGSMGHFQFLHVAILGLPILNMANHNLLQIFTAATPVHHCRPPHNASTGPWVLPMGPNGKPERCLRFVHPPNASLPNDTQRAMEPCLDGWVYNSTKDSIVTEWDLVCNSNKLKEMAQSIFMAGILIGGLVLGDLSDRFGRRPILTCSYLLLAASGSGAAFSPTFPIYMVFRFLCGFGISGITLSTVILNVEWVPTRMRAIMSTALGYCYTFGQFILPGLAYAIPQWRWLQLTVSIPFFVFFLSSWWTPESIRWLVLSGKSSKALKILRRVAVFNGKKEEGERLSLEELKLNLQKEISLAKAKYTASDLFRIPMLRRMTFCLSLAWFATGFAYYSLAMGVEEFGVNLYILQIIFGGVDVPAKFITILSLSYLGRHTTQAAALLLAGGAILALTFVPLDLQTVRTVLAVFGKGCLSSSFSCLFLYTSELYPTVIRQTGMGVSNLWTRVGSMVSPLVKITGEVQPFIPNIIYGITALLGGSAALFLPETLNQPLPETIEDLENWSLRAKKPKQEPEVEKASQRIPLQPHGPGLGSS
T4 sequence (P11712 whole entry): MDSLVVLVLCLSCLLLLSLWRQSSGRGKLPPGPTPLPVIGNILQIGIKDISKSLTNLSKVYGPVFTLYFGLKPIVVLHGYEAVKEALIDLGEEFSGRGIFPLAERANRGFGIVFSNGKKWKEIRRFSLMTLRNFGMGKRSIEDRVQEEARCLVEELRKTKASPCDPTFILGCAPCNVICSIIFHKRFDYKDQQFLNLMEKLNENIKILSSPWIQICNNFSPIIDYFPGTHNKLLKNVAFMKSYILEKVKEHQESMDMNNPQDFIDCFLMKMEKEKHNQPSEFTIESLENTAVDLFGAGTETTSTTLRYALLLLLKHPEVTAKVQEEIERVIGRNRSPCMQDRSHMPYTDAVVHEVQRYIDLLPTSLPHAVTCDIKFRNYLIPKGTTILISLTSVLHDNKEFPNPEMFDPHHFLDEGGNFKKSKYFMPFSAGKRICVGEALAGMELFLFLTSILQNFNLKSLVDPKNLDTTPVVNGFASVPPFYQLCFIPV
T5 sequence (P20813 whole entry): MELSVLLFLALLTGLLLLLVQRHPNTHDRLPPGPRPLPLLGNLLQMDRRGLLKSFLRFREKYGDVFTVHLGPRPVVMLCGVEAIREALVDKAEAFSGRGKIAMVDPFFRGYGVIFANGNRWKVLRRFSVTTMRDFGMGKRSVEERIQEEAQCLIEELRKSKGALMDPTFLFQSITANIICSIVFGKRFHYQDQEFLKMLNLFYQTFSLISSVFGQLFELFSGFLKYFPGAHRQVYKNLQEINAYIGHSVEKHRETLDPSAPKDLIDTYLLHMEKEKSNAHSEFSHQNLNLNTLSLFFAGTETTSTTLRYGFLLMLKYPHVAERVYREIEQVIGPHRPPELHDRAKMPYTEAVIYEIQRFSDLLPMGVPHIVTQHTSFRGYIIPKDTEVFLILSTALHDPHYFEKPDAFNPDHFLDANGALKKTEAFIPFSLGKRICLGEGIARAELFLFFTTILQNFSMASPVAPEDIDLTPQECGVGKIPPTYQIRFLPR
T1 sequence (P10635 whole entry): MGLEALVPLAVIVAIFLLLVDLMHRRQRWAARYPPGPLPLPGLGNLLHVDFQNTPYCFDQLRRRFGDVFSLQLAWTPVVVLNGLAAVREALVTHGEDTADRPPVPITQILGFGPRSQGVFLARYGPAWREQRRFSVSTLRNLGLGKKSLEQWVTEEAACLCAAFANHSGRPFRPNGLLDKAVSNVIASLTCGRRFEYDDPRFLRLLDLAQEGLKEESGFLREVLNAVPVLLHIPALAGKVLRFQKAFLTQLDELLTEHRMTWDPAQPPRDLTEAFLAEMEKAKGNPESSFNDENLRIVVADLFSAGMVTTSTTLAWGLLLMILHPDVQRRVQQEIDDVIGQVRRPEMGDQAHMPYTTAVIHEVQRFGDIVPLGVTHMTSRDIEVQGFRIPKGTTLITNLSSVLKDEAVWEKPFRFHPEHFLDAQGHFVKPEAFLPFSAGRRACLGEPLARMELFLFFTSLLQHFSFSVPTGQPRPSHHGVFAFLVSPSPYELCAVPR

For the compound `C/C(O)=C(\C#N)C(=O)Nc1ccc(C(F)(F)F)cc1` [teriflunomide, (Z)-2-Cyano-3-hydroxy-but-2-enoic acid-(4trifluoromethylphenyl)-amide], the “DNA damage (gamma-H2AX) in PTEN-deficient versus WT cells” value in the data set on gamma-H2AX is reported as “augmented DNA damage to a significantly greater degree in PTEN-deficient cells”. In addition, the “effect on pharmacokinetics of metoprolol (a CYP2D6 substrate)” value at CYP2D6 is “does not affect the pharmacokinetics”. Also, the “additional dose eliminated (mostly in feces)” value in data set [1] (after accelerated elimination procedure with cholestyramine) is listed as 23.1%. The “decrease in teriflunomide plasma concentration” value in [1] (end of 11 days of cholestyramine or activated charcoal) is recorded as “more than 98%”. Moreover, the bound to albumin on albumin (healthy subjects) is given as > 99.3%. Also, at albumin (patients with chronic renal failure), the “free fraction of teriflunomide” value was “approximately doubled”. Also, the “free fraction of teriflunomide” value at albumin (patients with rheumatoid arthritis) is reported as “slightly higher”. Also, on albumin (therapeutic concentrations), the protein binding linearity result is “linear”. Moreover, in the data set with CYP1A2, the “decrease in mean AUC of caffeine” value is listed as 55% and the “decrease in mean Cmax of caffeine” value is 18%. Moreover, on CYP2C8, the “increase in mean repaglinide AUC” value is listed as 2.4 fold and the “increase in mean repaglinide Cmax” value is 1.7 fold. Also, the “effect on pharmacokinetics of S-warfarin (a CYP2C9 substrate)” value at CYP2C9 is recorded as “does not affect the pharmacokinetics”. For the same compound, in [2], the QT interval prolongation result is “no evidence that teriflunomide caused QT interval prolongation of clinical significance” and the “upper bound of the 90% confidence interval for the largest placebo-adjusted, baseline-corrected QTc” value is on record as “below 10 ms”. Moreover, in data set [3], the “increase in mean ethinylestradiol AUC 0-24” value is given as 1.54 fold, the “increase in mean ethinylestradiol Cmax” value is 1.58 fold, the “increase in mean levonorgestrel AUC 0-24” value is on record as 1.41 fold and the “increase in mean levonorgestrel Cmax” value is 1.33 fold. Also, on CYP2B6, the “effect on pharmacokinetics of bupropion (a CYP2B6 substrate)” value is “does not affect the pharmacokinetics”. Moreover, the “effect of rifampin on the pharmacokinetics of teriflunomide” value in [4] is reported as “does not affect the pharmacokinetics”. Moreover, the “sensitivity of Pten^−/− MEFs compared with WT MEFs” value in the data set on Pten^−/− and WT MEFs is “more sensitive”. Moreover, in data set [5], the “increase in mean cefaclor AUC” value is recorded as 1.54 fold and the “increase in mean cefaclor Cmax” value is 1.43 fold.

(Values after US20250302817A1, “METHODS FOR TREATING PTEN-MUTANT TUMORS” (Icahn School of Medicine at Mount Sinai, priority 2016, published 2025).)
